From patent US5614370A, “Assay to identify human C5a antagonists and agonists” (Merck & Co., Inc., priority 1994, dated 1997)
“Also recorded” adds a separate entry of the source. Non-standard residues stand in square brackets, D forms with d. Residues, ends and D or L forms follow the SMILES beside them. NMeF = CN[C@@H](Cc1ccccc1)C(=O)O; dCha = N[C@H](CC1CCCCC1)C(=O)O

Assays:
chemokinetic response = settings: Mollison et al.; cited from earlier work
C5a receptor = settings: literature; cited from earlier work
neutrophils = settings: Drapeau et al.; cited from earlier work
human neutrophils [1] = test: Inhibition of C5a induced degranulation (MPO release); assay type: cell-based
Protocol: (§1) FIG. 7A and 7B. […] These concentrations of the stimulating agents released 22% and 19% of the total cellular MPO, respectively.
(§2) This assay was performed on human neutrophils as previously reported and it is a measure of C5a or peptide induced exocytosis (Rollins, T. E. and Springer, M. S. (1985) J. Biol. Chem. 260, 7157-7160).

human neutrophils [2] = test: Inhibition of IL-8 induced degranulation (specificity control); assay type: cell-based; settings: 8 nM IL-8, FIG. 7A
Protocol: as §1, §2

| SMILES | chemokinetic response (chemokinetic response) | agonist properties in words (C5a receptor) | stimulation of superoxide release from neutrophils (neutrophils) | inhibition of C5a stimulated degranulation in words (human neutrophils [1]) | IC50 (human neutrophils [1]; FIG. 7A, challenge 0.4 nM C5a) | effect on IL-8 induced degranulation (human neutrophils [2]) |
| --- | --- | --- | --- | --- | --- | --- |
| CN[C@@H](Cc1ccccc1)C(=O)N[C@@H](CCCCN)C(=O)N1CCC[C@H]1C(=O)N[C@H](CC1CCCCC1)C(=O)N[C@@H](Cc1ccccc1)C(=O)N[C@H](CCCNC(=N)N)C(=O)O [C026, NMeF--K--P-dCha-F-dR] (H-[NMeF]KP[dCha]F[dR]-OH) | only a small chemokinetic response | reduced agonist properties; also recorded: behaved as an agonist in other assays | failed to stimulate superoxide release from neutrophils |  |  |  |
| CN[C@@H](Cc1ccccc1)C(=O)N[C@@H](CCCCN)C(=O)N1CCC[C@H]1C(=O)N[C@H](CC1CCCCC1)C(=O)N[C@@H](Cc1c[nH]c2ccccc12)C(=O)N[C@H](CCCNC(=N)N)C(=O)O [C089] |  |  |  | inhibits C5a stimulated degranulation | 100 nM | little effect on IL-8 induced degranulation |
